Laboratory results published in patent US5756491A, “Antiviral cobalt-organic compounds” (priority 1991, dated 1998).
Converted amounts (≈) assume the structure as drawn.

Legend:
HSV-1 [1] = experiment: HSV-1 cytopathic effect (CPE) inhibition assay; type: cell-based; conditions: Human alphaherpesvirus 1; HSV-1, CPE
Method: (§1) Low passage human foreskin fibroblast cells were seeded into 96 well tissue culture plates 24 hours prior to use at a cell concentration of 2.5×10^4 cells per ml in 0.1 ml (MEM) supplemented with 10% fetal bovine serum (FBS). The cells were then incubated for 24 hour at 37° C. in a CO2 incubator. After incubation, the medium was removed and 100 μl of MEM containing 2% FBS was added to all but the first row. In the first row, 125 μl of experimental drug was added in triplicate wells. Medium alone was added to both cell and virus control wells. The drug in the first row of wells was then diluted serially 1:5 throughout the remaining wells by transferring 25 μl using the Cetus Liquid Handling Machine. After dilution of drug, 100 μl of the appropriate virus concentration was added to each well, excluding cell control wells which received 100 μl of MEM. For HSV-1 and HSV-2 assays, the virus concentration utilized was 1000 PFU's per well. For CMV and VZV assays, the virus concentration added was 2500 PFU per well. The plates were then incubated at 37° C. in a CO2 incubator for three days for HSV-1 and HSV-2, 10 days for VZV, or 14 days for CMV. […] The plates were allowed to dry for 24 h and then read on a Skatron Plate Reader at 620 nm.
(§2) I. EC50 values were also determined for each of the viruses tested for known antiviral agents. […]

[2] = VZV plaque reduction assay; type: cell-based; conditions: Human alphaherpesvirus 3, V2V
Method: The procedure is essentially the same as for the HSV plaque assay described above with two exceptions:
1. After addition of the drug, the plates are incubated for ten days.
2. On days three and six an additional 1 ml overlay with equal amounts of 2×MEM and 1% agarose are added.
The procedure for the liquid overlay plaque assay is similar to that using the agarose overlay. The procedure for adding the virus is the same as for the regular plaque assay. The drugs are made up in a concentration to be used in MEM with 2% FBS. The drugs are not made up at 2×concentration as in previous assays but are made up at the desired concentration. For HSV-1 and HSV-2 assays, an antibody preparation obtained from Baxter Health Care Corporation is diluted 1:500 and added to the media that the drug is diluted in. For CMV and VZV, no antibody in the overlay is utilized. For the CMV assay, additional medium without new drug is added on day six and allowed to incubate for a total of 11 days. For VZV, additional media is added on day five and incubated for a total of eight days. At the end of the incubation period for all of the assays, the medium is removed, the cells washed and then stained with 0.1% crystal violet solution for ten minutes. […]
as §2

HSV-2 = HSV-2 cytopathic effect (CPE) inhibition assay; type: cell-based; conditions: Human alphaherpesvirus 2; HSV-2, CPE
Method: as §1, §2

HSV-1 [3] = experiment: HSV-1 plaque reduction assay; type: cell-based; conditions: Human alphaherpesvirus 1, read-out: EC50
Method: Two days prior to use, HFF cells are plated into six well plates and incubated at 37° C. with 5% CO2 and 90% humidity. On the date of assay, the drug is made up at twice the desired concentration in 2×MEM and then serially diluted 1:5 in 2×MEM using six concentrations of drug. The initial starting concentration is usually 200 μg/ml down to 0.06 μg/ml. The virus to be used is diluted in MEM containing 10% FBS to a desired concentration which will give 20-30 plaques per well. The media is then aspirated from the wells and 0.2 ml of virus is added to each well in duplicate with 0.2 ml of media being added to drug toxicity wells. The plates are then incubated for one hour with shaking every fifteen minutes. After the incubation period, an equal amount of 1% agarose was added to a equal volume of each drug dilution. This will give final drug concentrations beginning with 100 μg/ml and ending with 0.03 μg/ml and a final agarose overlay concentration of 0.5%. The drug agarose mixture is applied to each well in 2 ml volume and the plates then incubated for three days, after which the cells were stained with a 1.5% solution of neutral red. At the end of 4-6 hr incubation period, the stain is aspirated, and plaques counted using a stereomicroscope at 1×magnification.
The procedure for the liquid overlay plaque assay is similar to that using the agarose overlay. The procedure for adding the virus is the same as for the regular plaque assay. The drugs are made up in a concentration to be used in MEM with 2% FBS. The drugs are not made up at 2×concentration as in previous assays but are made up at the desired concentration. For HSV-1 and HSV-2 assays, an antibody preparation obtained from Baxter Health Care Corporation is diluted 1:500 and added to the media that the drug is diluted in. For CMV and VZV, no antibody in the overlay is utilized. For the CMV assay, additional medium without new drug is added on day six and allowed to incubate for a total of 11 days. For VZV, additional media is added on day five and incubated for a total of eight days. At the end of the incubation period for all of the assays, the medium is removed, the cells washed and then stained with 0.1% crystal violet solution for ten minutes. The cells are then rinsed several times to remove any excess crystal violet and plaques enumerated using a stereomicroscope.
(§3) I. EC50 values were also determined for each of the viruses tested for known antiviral agents. The comparison compound was ACV for all viruses except for HCMV aherein DHPG was the comparison compound. In Table 26, these comparison EC50 values are indicated with an asterisk. In Table 27, the drug FIAU (2'-fluoro-5-iodo-arabinosyl-uracil) was used as a control.

EBV = EBV IMN assay; type: cell-based; conditions: human gammaherpesvirus 4, EBV
Method: as §3

HFF cells [4] = experiment: MTT assay for cell cytotoxicity; type: cell-based, human; conditions: stationary cells
Method: Twenty-four hours prior to assay, HFF cells are plated into 96 well plates at a concentration of […] cells per well. After 24 h, the media is aspirated and […] of drug is added to the first row of wells and then diluted serially 1:5 using the automated Cetus Liquid Handling System in a manner similar to that used in the CPE assay. The plates are then incubated in a CO2 incubator at 37° C. for seven days. At this time, each well receives 50 microliters of […] solution of MTT in Dulbecco's Phosphate Buffered Saline. The plates are then incubated for an additional four hours. At this time, the media is removed and replaced with 100 μl of 0.04N hydrochloric acid in isopropanol. After shaking briefly, the plates are then read on a plate reader at 550 nm.

HFF cells [5] = experiment: Neutral red uptake toxicity; type: cell-based, human; conditions: stationary cells
HFF cells [6] = experiment: Cell proliferation assay; type: cell-based, human; conditions: rapidly growing cells
Method: Twenty-four hours prior to assay, HFF cells are seeded in 6-well plates at a concentration of 2.5×10^4 cells per well in MEM containing 10% FBS. On the day of the assay, drugs are diluted serially in MEM containing 10% FBS at increments of 1:5 covering a range from 100 μg/ml to 0.03 μg/ml. […] The media from the wells is then aspirated and 2 ml of each drug concentration is then added to each well. The cells are then incubated in a Co2 incubator at 37° C. for 72 h. At the end of this time, the media-drug solution is removed and the cells washed. […] The cell-media mixture is then pipetted up and down vigorously to break up the cell suspension and 0.2 ml of the mixture is added to 9.8 ml of Isoton III and counted using a Coulter Counter. Each sample is counted three times with three replicate wells per sample.

Nc1nc2c(ncn2COCCO)c(=O)[nH]1 [ACV]
EC50 (HSV-1 [1]): 0.2 µg/mL (≈ 0.888 µM)
EC50 [2]: 3.2 µg/mL (≈ 14.2 µM)
EC50 (HSV-2): 0.7 µg/mL (≈ 3.11 µM)
EC50 (HSV-1 [3]): 0.2 µg/mL (≈ 0.888 µM)
EC50 (EBV): 5.8 µg/mL (≈ 25.8 µM)

CC1=[N+]2CC[N+]3=C(C)C=C(c4ccccc4)[O][Co-3]23([NH3+])([NH3+])[O]C(c2ccccc2)=C1.[Cl-] [Compound 64]
toxicity IC50, MTT toxicity (HFF cells [4]): 53 MCG/ML
toxicity IC50, neutral red uptake (HFF cells [5]): 15.2 MCG/ML
toxicity IC50, cell proliferation (HFF cells [6]): 38 MCG/ML

CC1=C(Cl)C(C)=[N+]2CC[N+]3=C(C)C(Cl)=C(C)[O][Co-3]23([NH3+])([NH3+])[O]1.[Cl-] [Compound 67]
toxicity IC50, MTT toxicity (HFF cells [4]): 42.0 MCG/ML
toxicity IC50, neutral red uptake (HFF cells [5]): 12.1 MCG/ML
toxicity IC50, cell proliferation (HFF cells [6]): 12.0 MCG/ML
